In this experiment the test system is HCT116. The note with it: 72 h. Put shortly:
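Each well of the 1536-well plates received 250 HCT116 cells, which attached over 5 h. Luminescence was measured with CellTiter-Glo, scaled with vehicle as 0% and positive control as -100%, and pattern-corrected. A four-parameter Hill fit yielded IC50 and maximal efficacy.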

Molecules are shown by their SMILES. Where a name gives a salt, the structure may show the parent alone.

In the case of `CCC[C@@]1(CCc2ccccc2)CC(O)=C([C@H](CC)c2cccc(NS(=O)(=O)c3ccc(C(F)(F)F)cn3)c2)C(=O)O1` [Tipranavir], the IC50 cell viability is, setting by setting: (ICRF193 0 nM) above 45.8 µM; (ICRF193 200 nM) above 45.8 µM.

`C[N+]12CCCCC1CCC(=C(c1cccs1)c1cccs1)C2` (stereo not drawn) [Tiquizium bromide]: the IC50 cell viability (ICRF193 0 nM) was above 45.8 µM and the IC50 cell viability (ICRF193 200 nM) was above 45.8 µM.

On to `CCCCS(=O)(=O)N[C@@H](Cc1ccc(OCCCCC2CCNCC2)cc1)C(=O)O` [Tirofiban hydrochloride monohydrate], for which the IC50 cell viability by setting is: (ICRF193 0 nM) above 45.8 µM; (ICRF193 200 nM) above 45.8 µM.

With `Clc1ccc2nsnc2c1NC1=NCCN1` [Tizanidine hydrochloride], the IC50 cell viability reads like this: (ICRF193 0 nM) above 45.8 µM; (ICRF193 200 nM) above 45.8 µM.

As to `COc1ccc(CNCC(O)COc2ccc3[nH]c(=O)ccc3c2)cc1OC` (stereo not drawn) [Toborinone], the IC50 cell viability was above 45.8 µM (ICRF193 0 nM) and above 45.8 µM (ICRF193 200 nM).

Take `NC[C@H]1O[C@H](O[C@H]2[C@H](O)[C@@H](O[C@H]3O[C@H](CO)[C@@H](O)[C@H](N)[C@H]3O)[C@H](N)C[C@@H]2N)[C@H](N)C[C@@H]1O` [Tobramycin]: the IC50 cell viability is above 45.8 µM (ICRF193 0 nM) and above 45.8 µM (ICRF193 200 nM).

For the compound `Cc1cccc(C)c1NC(=O)C(C)N` (stereo not drawn) [Tocainide hydrochloride], the IC50 cell viability is, setting by setting: (ICRF193 0 nM) above 45.8 µM; (ICRF193 200 nM) above 45.8 µM.

`Cc1ccc(C(C)OC(=O)C2(C)CCC(C(=O)O)C2(C)C)cc1` (stereo not drawn) [Tocanfil]: the IC50 cell viability is above 45.8 µM (ICRF193 0 nM) and above 45.8 µM (ICRF193 200 nM).

As to `CC1=C(/C=C/C(C)=C/C=C/C(C)=C/C(=O)Oc2c(C)c(C)c3c(c2C)CCC(C)(CCCC(C)CCCC(C)CCCC(C)C)O3)C(C)(C)CCC1` (stereo not drawn) [Tocoretinate], the IC50 cell viability by setting is: (ICRF193 0 nM) above 45.8 µM; (ICRF193 200 nM) above 45.8 µM.

With `CCOC(=O)NNc1nncc2ccccc12` [Todralazine hydrochloride], the IC50 cell viability by setting is: (ICRF193 0 nM) above 45.8 µM; (ICRF193 200 nM) above 45.8 µM.

With `C[C@@H]1CCN(C(=O)CC#N)C[C@@H]1N(C)c1ncnc2[nH]ccc12` [Tofacitinib], the IC50 cell viability is, setting by setting: (ICRF193 0 nM) above 45.8 µM; (ICRF193 200 nM) above 45.8 µM.

Compound `CCC1C(C)=NN=C(c2ccc(OC)c(OC)c2)c2cc(OC)c(OC)cc21` (stereo not drawn) [Tofisopam] registered an IC50 cell viability (ICRF193 0 nM) above 45.8 µM and an IC50 cell viability (ICRF193 200 nM) above 45.8 µM.

Take `CCc1ccc(Cc2ccc3c(c2)[C@]2(OC3)O[C@H](CO)[C@@H](O)[C@H](O)[C@H]2O)cc1` [Tofogliflozin (hydrate)]: the IC50 cell viability (ICRF193 0 nM) is above 45.8 µM and the IC50 cell viability (ICRF193 200 nM) is above 45.8 µM.

With `Cc1ccc(S(=O)(=O)NC(=O)NN2CCCCCC2)cc1` [Tolazamide], the IC50 cell viability (ICRF193 0 nM) is above 45.8 µM and the IC50 cell viability (ICRF193 200 nM) was above 45.8 µM.

In turn, `c1ccc(CC2=NCCN2)cc1` [Tolazoline hydrochloride] came in with an IC50 cell viability (ICRF193 0 nM) above 45.8 µM and an IC50 cell viability (ICRF193 200 nM) above 45.8 µM.

`CCCCNC(=O)NS(=O)(=O)c1ccc(C)cc1` [Tolbutamide]: the IC50 cell viability was above 45.8 µM (ICRF193 0 nM) and above 45.8 µM (ICRF193 200 nM).

Consider `Cc1cccc(N(C)C(=S)Oc2ccc3c(c2)C2CCC3C2)c1` (stereo not drawn) [Tolciclate], for which the IC50 cell viability reads like this: (ICRF193 0 nM) above 45.8 µM; (ICRF193 200 nM) above 45.8 µM.

For the compound `Cc1cccc(N(C)C(=S)Oc2ccc3c(c2)CCC3)c1` [Tolindate], the IC50 cell viability by setting is: (ICRF193 0 nM) above 45.8 µM; (ICRF193 200 nM) above 45.8 µM.

On to `Cc1ccc(C(=O)c2ccc(CC(=O)O)n2C)cc1` [Tolmetin sodium dihydrate], for which the IC50 cell viability (ICRF193 0 nM) was above 45.8 µM and the IC50 cell viability (ICRF193 200 nM) is above 45.8 µM.

For `Cc1cccc(N(C)C(=S)Oc2ccc3ccccc3c2)c1` [Tolnaftate], the IC50 cell viability by setting is: (ICRF193 0 nM) above 45.8 µM; (ICRF193 200 nM) above 45.8 µM.

For the compound `Cc1ccc(C(=O)C(C)CN2CCCCC2)cc1` (stereo not drawn) [Tolperisone hydrochloride], the IC50 cell viability was above 45.8 µM (ICRF193 0 nM) and above 45.8 µM (ICRF193 200 nM).

In the case of `Cc1ccc(O)c([C@H](CCN(C(C)C)C(C)C)c2ccccc2)c1` [Tolterodine], the IC50 cell viability runs as follows: (ICRF193 0 nM) above 45.8 µM; (ICRF193 200 nM) above 45.8 µM.

Consider `Cc1ccccc1C(=O)Nc1ccc(C(=O)N2CCCC(O)c3cc(Cl)ccc32)c(C)c1` (stereo not drawn) [Tolvaptan], for which the IC50 cell viability runs as follows: (ICRF193 0 nM) above 45.8 µM; (ICRF193 200 nM) above 45.8 µM.

As for `CCN(CC)CC(=O)Nc1c(C)cccc1C(=O)OC` [Tolycaine], the IC50 cell viability was above 45.8 µM (ICRF193 0 nM) and above 45.8 µM (ICRF193 200 nM).

The compound `CC1(C)O[C@@H]2[C@@H](CO[C@@]3(COS(N)(=O)=O)OC(C)(C)O[C@@H]23)O1` [Topiramate] yielded an IC50 cell viability (ICRF193 0 nM) above 45.8 µM and an IC50 cell viability (ICRF193 200 nM) above 45.8 µM.

For `N#Cc1cc(-c2n[nH]c(-c3ccncc3)n2)ccn1` [Topiroxostat], the IC50 cell viability is above 45.8 µM (ICRF193 0 nM) and above 45.8 µM (ICRF193 200 nM).

For the compound `Cc1cccc(Nc2ccncc2S(=O)(=O)NC(=O)NC(C)C)c1` [Torsemide], the IC50 cell viability was above 45.8 µM (ICRF193 0 nM) and above 45.8 µM (ICRF193 200 nM).

For the compound `NC1CCN(c2nc3c(cc2F)c(=O)c(C(=O)O)cn3-c2ccc(F)cc2F)C1` (stereo not drawn) [Tosufloxacin toluenesulfonic acid], the IC50 cell viability runs as follows: (ICRF193 0 nM) above 45.8 µM; (ICRF193 200 nM) above 45.8 µM.

`COc1ccc(/C=C/C(=O)Nc2ccccc2C(=O)O)cc1OC` [Tranilast]: the IC50 cell viability by setting is: (ICRF193 0 nM) above 45.8 µM; (ICRF193 200 nM) above 45.8 µM.

For `CC1(C)[C@H](C=C(Cl)Cl)[C@H]1C(=O)OCc1c(F)c(F)cc(F)c1F` [Transfluthrin], the IC50 cell viability (ICRF193 0 nM) is above 45.8 µM and the IC50 cell viability (ICRF193 200 nM) is above 45.8 µM.

In the case of `N[C@@H]1C[C@H]1c1ccccc1` [Tranylcypromine hydrochloride], the IC50 cell viability is, setting by setting: (ICRF193 0 nM) above 45.8 µM; (ICRF193 200 nM) above 45.8 µM.

In turn, `O=c1n(CCCN2CCN(c3cccc(Cl)c3)CC2)nc2ccccn12` [Trazodone hydrochloride] showed an IC50 cell viability (ICRF193 0 nM) above 45.8 µM and an IC50 cell viability (ICRF193 200 nM) above 45.8 µM.

`Cn1c(=O)cc(N2CCC[C@@H](N)C2)n(Cc2cc(F)ccc2C#N)c1=O` [Trelagliptin succinate]: the IC50 cell viability is, setting by setting: (ICRF193 0 nM) above 45.8 µM; (ICRF193 200 nM) above 45.8 µM.

Regarding `CC(=O)O[C@H]1CC[C@H]2[C@@H]3CCC4=CC(=O)CCC4=C3C=C[C@]12C` [Trenbolone (acetate)], the IC50 cell viability is, setting by setting: (ICRF193 0 nM) above 45.8 µM; (ICRF193 200 nM) above 45.8 µM.

Consider `CS(=O)(=O)OC[C@H](O)[C@@H](O)COS(C)(=O)=O` [Treosulfan], for which the IC50 cell viability reads like this: (ICRF193 0 nM) above 45.8 µM; (ICRF193 200 nM) above 45.8 µM.

With `CCOc1cc(OCC)c(C(=O)CCC(=O)O)cc1OCC` [Trepibutone], the IC50 cell viability reads like this: (ICRF193 0 nM) above 45.8 µM; (ICRF193 200 nM) above 45.8 µM.

`CC(=O)OCC(COC(C)=O)OC(C)=O` [Triacetin]: the IC50 cell viability runs as follows: (ICRF193 0 nM) above 45.8 µM; (ICRF193 200 nM) above 45.8 µM.

In the case of `CC1(C)O[C@@H]2C[C@H]3[C@@H]4CCC5=CC(=O)C=C[C@]5(C)[C@@]4(F)[C@@H](O)C[C@]3(C)[C@]2(C(=O)CO)O1` [Triamcinolone acetonide], the IC50 cell viability (ICRF193 0 nM) was above 45.8 µM and the IC50 cell viability (ICRF193 200 nM) is above 45.8 µM.

With `CC(=O)OCC(=O)[C@@]1(O)[C@H](OC(C)=O)C[C@H]2[C@@H]3CCC4=CC(=O)C=C[C@]4(C)[C@@]3(F)[C@@H](O)C[C@@]21C` [Triamcinolone diacetate], the IC50 cell viability was above 45.8 µM (ICRF193 0 nM) and above 45.8 µM (ICRF193 200 nM).
